Source: US7345083B2, “Hydroisoindoline tachykinin receptor antagonists” (Merck & Co., Inc., priority 2004, dated 2008)

melting point: 216.5 to 217.5 °C
SMILES: C[C@@H](O[C@H]1CC[C@@H]2CN(C3=CC(=O)CC3)C[C@H]2[C@@H]1c1ccc(F)cc1)c1cc(C(F)(F)F)cc(C(F)(F)F)c1 [Example 7, 3-[(3aR,4R,5S,7aS)-5-{(1R)-1-[3,5-bis(Trifluoromethyl)phenyl]ethoxy}-4-(4-fluorophenyl)-octahydro-2H-isoindol-2-yl]cyclopent-2-en-1-one]
